The record followed here is patent publication US7745422B2, “Bisphosphonate compounds and methods for bone resorption diseases, cancer, bone pain, immune disorders, and infectious diseases” (The Board of Trustees of the University of Illinois, priority 2004, dated 2010).

Converted amounts (≈) assume the structure as drawn. Like-named read-outs stand apart in the source and are kept apart here.

The subject of assay [1] is human nasopharyngeal carcinoma cells. As to the kind of experiment: Toxicity testing in human nasopharyngeal carcinoma cells. Format: cell-based. The conditions noted are these: read-out: (5) Toxicity IC50. The procedure:
We have obtained data for selected bisphosphonate compounds in the contexts of D. discoideum assays, human FPPS assays, gammadelta T cell stimulation assays, and bone resorption assays. […] Some toxicity testing was also performed. See Table 4 (in some instances, the same data depicted elsewhere herein, e.g., in Table 1, may be presented again to facilitate comparative analysis).

The next assay has as its system fetal mouse metatarsals. As to the kind of experiment: bone resorption assay: 45Ca2+ release from 17-day old fetal mouse metatarsals. It is filed as cell-based. As to conditions: Mus musculus; Table 4. The method, then: Compounds are tested in a bone resorption assay: ^45Ca^2+ release from 17-day old fetal mouse metatarsals (ref. 37).
The next assay deals with Vγ2Vδ2 T cells. As to the kind of experiment: gammadelta T cell stimulation (TNF-α release assay). As to conditions: Homo sapiens, T-cell. Format: cell-based, human. From the text: (§1) We then investigated the activity of each compound in inhibiting the FPPS from L. major, in Dictyostelium discoideum growth inhibition and in γδ T cell activation. We used the FPPS from L. major since this enzyme is the putative bisphosphonate target in several trypanosomatid species.

A further assay relates to T. cruzi. As to the kind of experiment: Activity against T. cruzi. It is filed as cell-based. As to conditions: Trypanosoma cruzi; Table 5; read-out: (8) T. cruzi IC50. The source says: We have obtained data for selected bisphosphonate compounds against parasites including Trypanosoma brucei, Trypanosoma cruzi, and Leishmania major. […] See Table 5 (in some instances, the same data depicted elsewhere herein, e.g., in Table 1, may be presented again to facilitate comparative analysis).

In a further assay the target is T1, human FPPS (Homo sapiens, UniProt P14324).
T1 sequence (P14324 1-419): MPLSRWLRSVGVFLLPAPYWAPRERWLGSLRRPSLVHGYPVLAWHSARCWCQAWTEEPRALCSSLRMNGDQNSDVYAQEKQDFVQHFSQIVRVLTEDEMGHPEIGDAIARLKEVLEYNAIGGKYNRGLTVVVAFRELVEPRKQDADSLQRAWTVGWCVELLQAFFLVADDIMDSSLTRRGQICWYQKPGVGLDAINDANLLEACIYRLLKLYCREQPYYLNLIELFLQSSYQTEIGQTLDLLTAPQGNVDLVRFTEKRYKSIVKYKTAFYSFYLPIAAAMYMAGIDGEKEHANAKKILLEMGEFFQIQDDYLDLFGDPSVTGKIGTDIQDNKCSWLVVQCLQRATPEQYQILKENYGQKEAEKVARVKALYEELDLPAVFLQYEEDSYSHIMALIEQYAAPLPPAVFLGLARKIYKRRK
Kind of assay: human FPPS assay. It is filed as biochemical.

Another assay concerns Dictyostelium discoideum. Kind of assay: D. discoideum cell growth inhibition. It is filed as cell-based. The conditions noted are these: Dictyostelium discoideum.
From the text: as §1

Consider `O=P([O-])(O)C(O)(C[n+]1ccccc1)P(=O)(O)O` (stereo not drawn) [Compound 278], for which the IC50 in assay [1] worked out at 300 mg/L (≈ 1060 µM); with fetal mouse metatarsals it was 0.67 µM; in the assay on T. cruzi it was 3.07 mg/L (≈ 10.8 µM); against human FPPS, 1.6 µM; in the assay with Dictyostelium discoideum (read-out: (1) D. discoideum IC50) it was 2.6 µM; with Dictyostelium discoideum (read-out: D. discoideum IC50), 2.1 µM. In addition, the EC50 with Vγ2Vδ2 T cells (read-out: (3) gammadelta T cell stimulation EC50) worked out at 5.1 µM; with Vγ2Vδ2 T cells (read-out: gammadelta T cell stimulation EC50), 4.8 µM; in the assay on Vγ2Vδ2 T cells (read-out: gammadelta T cell stimulation, EC50), 5.1 µM.
